Experiment: Kinetic study: plasma kinetics of TMC278 after single IM or SC injection of a nanosuspension;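 note: healthy male beagle dogs injected in both biceps femoris muscles (IM) or both thoracal sides (SC), total volume 0.2 mL/kg, drug measured in plasma from blood samples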
Format: in vivo, male beagle dogs
Details: male, beagle, dog, plasma, 5 mg/kg
Method: Six healthy male beagle dogs with body weights ranging from 8 to 16 kg at the start of the study, were used. Each dog was identified by an ear tattoo number. Two dogs were dosed intramuscularly (IM) in the left and right m. biceps femoris (treatment group A). […] Two dogs were dosed subcutaneously (SC) in the left and right thoracal region. The injection volume was 2×0.1 ml/kg in all treatment groups. A 20 G needle was used.
Blood samples of 3 ml were taken from the left jugular vein from all dogs on day 0 at 0 h (predose), 20 min, 1 h, 3 h, 8 h and 24 h post-dose and further on days 2, 3, 6, 8, 10, 13, 16, 20, 23, 27, 29, 36, 43, 50, 57, 64, 71, 78, 85 and 92 at approximately 8 AM. Blood samples were placed on EDTA, EDTA Vacuette Greiner, Cat. No. 454086, Greiner Labortechnik N.V.). Within 2 h of blood sampling, samples were centrifuged at room temperature at about 1900×g for 10 minutes to allow plasma separation. Plasma was immediately transferred into a second tube and stored in the freezer within 2 hours after the start of centrifugation.

With `Cc1cc(C=CC#N)cc(C)c1Nc1ccnc(Nc2ccc(C#N)cc2)n1` [TMC278, 4-[[4-[[4-(2-cyanoethenyl)-2,6-dimethylphenyl]amino]-2-pyrimidinyl]amino]benzonitrile] the concentration at 2208 h (intramuscular, plasma concentration of TMC278, single IM 5 mg/kg TMC278 nanosuspension, mean of 2 dogs, 2208 h (d92)) was 1.41 ng/mL, the concentration at 0 h (sc, plasma concentration of TMC278, single SC 5 mg/kg TMC278 nanosuspension, dog 19129, 0 h (d0, predose)) was < 1 ng/mL and the concentration at 1 h (sc, plasma concentration of TMC278, single SC 5 mg/kg TMC278 nanosuspension, dog 19129, 1 h) was 1.62 ng/mL. The concentration at 3 h (sc, plasma concentration of TMC278, single SC 5 mg/kg TMC278 nanosuspension, dog 19129, 3 h) was 7.96 ng/mL, the concentration at 8 h (sc, plasma concentration of TMC278, single SC 5 mg/kg TMC278 nanosuspension, dog 19129, 8 h) was 27.6 ng/mL and the concentration at 24 h (sc, plasma concentration of TMC278, single SC 5 mg/kg TMC278 nanosuspension, dog 19129, 24 h (d1)) was 15.7 ng/mL. For the same compound, the concentration at 48 h (sc, plasma concentration of TMC278, single SC 5 mg/kg TMC278 nanosuspension, dog 19129, 48 h (d2)) was 34.8 ng/mL, the concentration at 72 h (sc, plasma concentration of TMC278, single SC 5 mg/kg TMC278 nanosuspension, dog 19129, 72 h (d3)) was 26.1 ng/mL and the concentration at 144 h (sc, plasma concentration of TMC278, single SC 5 mg/kg TMC278 nanosuspension, dog 19129, 144 h (d6)) was 18.9 ng/mL. The concentration at 192 h (sc, plasma concentration of TMC278, single SC 5 mg/kg TMC278 nanosuspension, dog 19129, 192 h (d8)) was 17.7 ng/mL, the concentration at 240 h (sc, plasma concentration of TMC278, single SC 5 mg/kg TMC278 nanosuspension, dog 19129, 240 h (d10)) was 24.3 ng/mL and the concentration at 312 h (sc, plasma concentration of TMC278, single SC 5 mg/kg TMC278 nanosuspension, dog 19129, 312 h (d13)) was 21.7 ng/mL. It also gave a concentration at 384 h (sc, plasma concentration of TMC278, single SC 5 mg/kg TMC278 nanosuspension, dog 19129, 384 h (d16)) of 21.7 ng/mL, a concentration at 480 h (sc, plasma concentration of TMC278, single SC 5 mg/kg TMC278 nanosuspension, dog 19129, 480 h (d20)) of 29.8 ng/mL and a concentration at 648 h (sc, plasma concentration of TMC278, single SC 5 mg/kg TMC278 nanosuspension, dog 19129, 648 h (d27)) of 19 ng/mL. It also gave a concentration at 696 h (sc, plasma concentration of TMC278, single SC 5 mg/kg TMC278 nanosuspension, dog 19129, 696 h (d29)) of 21 ng/mL, a concentration at 864 h (sc, plasma concentration of TMC278, single SC 5 mg/kg TMC278 nanosuspension, dog 19129, 864 h (d36)) of 12.7 ng/mL and a concentration at 1032 h (sc, plasma concentration of TMC278, single SC 5 mg/kg TMC278 nanosuspension, dog 19129, 1032 h (d43)) of 5.22 ng/mL. It also gave a concentration at 1200 h (sc, plasma concentration of TMC278, single SC 5 mg/kg TMC278 nanosuspension, dog 19129, 1200 h (d50)) of 6.37 ng/mL, a concentration at 1368 h (sc, plasma concentration of TMC278, single SC 5 mg/kg TMC278 nanosuspension, dog 19129, 1368 h (d57)) of 4.78 ng/mL and a concentration at 1536 h (sc, plasma concentration of TMC278, single SC 5 mg/kg TMC278 nanosuspension, dog 19129, 1536 h (d64)) of 6.45 ng/mL. The concentration at 1704 h (sc, plasma concentration of TMC278, single SC 5 mg/kg TMC278 nanosuspension, dog 19129, 1704 h (d71)) was 3.96 ng/mL, the concentration at 1872 h (sc, plasma concentration of TMC278, single SC 5 mg/kg TMC278 nanosuspension, dog 19129, 1872 h (d78)) was 3.66 ng/mL and the concentration at 2040 h (sc, plasma concentration of TMC278, single SC 5 mg/kg TMC278 nanosuspension, dog 19129, 2040 h (d85)) was 8.6 ng/mL. The concentration at 2208 h (sc, plasma concentration of TMC278, single SC 5 mg/kg TMC278 nanosuspension, dog 19129, 2208 h (d92)) was 3.05 ng/mL, the concentration at 0 h (sc, plasma concentration of TMC278, single SC 5 mg/kg TMC278 nanosuspension, dog 19349, 0 h (d0, predose)) was < 1 ng/mL and the concentration at 1 h (sc, plasma concentration of TMC278, single SC 5 mg/kg TMC278 nanosuspension, dog 19349, 1 h) was 1.37 ng/mL. The concentration at 3 h (sc, plasma concentration of TMC278, single SC 5 mg/kg TMC278 nanosuspension, dog 19349, 3 h) was 8.42 ng/mL, the concentration at 8 h (sc, plasma concentration of TMC278, single SC 5 mg/kg TMC278 nanosuspension, dog 19349, 8 h) was 13.8 ng/mL and the concentration at 24 h (sc, plasma concentration of TMC278, single SC 5 mg/kg TMC278 nanosuspension, dog 19349, 24 h (d1)) was 28.5 ng/mL. It also gave a concentration at 48 h (sc, plasma concentration of TMC278, single SC 5 mg/kg TMC278 nanosuspension, dog 19349, 48 h (d2)) of 29.1 ng/mL, a concentration at 72 h (sc, plasma concentration of TMC278, single SC 5 mg/kg TMC278 nanosuspension, dog 19349, 72 h (d3)) of 30.6 ng/mL and a concentration at 144 h (sc, plasma concentration of TMC278, single SC 5 mg/kg TMC278 nanosuspension, dog 19349, 144 h (d6)) of 32.7 ng/mL. The concentration at 192 h (sc, plasma concentration of TMC278, single SC 5 mg/kg TMC278 nanosuspension, dog 19349, 192 h (d8)) was 23 ng/mL, the concentration at 240 h (sc, plasma concentration of TMC278, single SC 5 mg/kg TMC278 nanosuspension, dog 19349, 240 h (d10)) was 42 ng/mL and the concentration at 312 h (sc, plasma concentration of TMC278, single SC 5 mg/kg TMC278 nanosuspension, dog 19349, 312 h (d13)) was 38.8 ng/mL. For the same compound, the concentration at 384 h (sc, plasma concentration of TMC278, single SC 5 mg/kg TMC278 nanosuspension, dog 19349, 384 h (d16)) was 16.6 ng/mL, the concentration at 480 h (sc, plasma concentration of TMC278, single SC 5 mg/kg TMC278 nanosuspension, dog 19349, 480 h (d20)) was 21.2 ng/mL and the concentration at 648 h (sc, plasma concentration of TMC278, single SC 5 mg/kg TMC278 nanosuspension, dog 19349, 648 h (d27)) was 11 ng/mL. The concentration at 696 h (sc, plasma concentration of TMC278, single SC 5 mg/kg TMC278 nanosuspension, dog 19349, 696 h (d29)) was 10.5 ng/mL, the concentration at 864 h (sc, plasma concentration of TMC278, single SC 5 mg/kg TMC278 nanosuspension, dog 19349, 864 h (d36)) was 5.49 ng/mL and the concentration at 1032 h (sc, plasma concentration of TMC278, single SC 5 mg/kg TMC278 nanosuspension, dog 19349, 1032 h (d43)) was 6.03 ng/mL. The concentration at 1200 h (sc, plasma concentration of TMC278, single SC 5 mg/kg TMC278 nanosuspension, dog 19349, 1200 h (d50)) was 3.4 ng/mL and the concentration at 1368 h (sc, plasma concentration of TMC278, single SC 5 mg/kg TMC278 nanosuspension, dog 19349, 1368 h (d57)) was 2.52 ng/mL.
